Measurements: ChEMBL document CHEMBL5725430, “Dihydro-benzo-oxazine and dihydro-pyrido-oxazine derivatives” (2017)
Several values for one entry are separate records, joined by “and”; a condition that tells them apart may be missing. Identical values can stand only once.

Tests used:
[1] = molecular target: Phosphatidylinositol 4,5-bisphosphate 3-kinase catalytic subunit alpha isoform (Homo sapiens, UniProt P42336); assay: (§1) The final concentrations of ATP and phosphatidyl inositol in the assay are 5 μM and 6 μg/mL, respectively. The reaction is started by the addition of PI3 kinase, e.g. PI3 kinase 6.p110δ.The components of the assay are added per well as follows 10 μl test compound in 5% DMSO per well in columns 2-1. Total activity is determined by addition 10 μl of 5% vol/vol DMSO in the first 4 wells of column 1 and the last 4 wells of column 12. The background is determined by addition of 10 μM control compound to the last 4 wells of column 1 and the first 4 wells of column 12. 2 mL Assay mix are prepared per plate 1.912 mL of HEPES assay buffer 8.33 μl of 3 mM stock of ATP giving a final concentration of 5 μM per well 1 μl of [33P]ATP on the activity date giving 0.05 μCi per well 30 μl of 1 mg/mL PI stock giving a final concentration of 6 μg/mL per well 5 μl of 1 M stock MgCl2 giving a final concentration of 1 mM per well 20 μl of the assay mix are added per well. 2 mL Enzyme mix are prepared per plate (x* μl PI3 kinase p110(3 in 2 mL of kinase buffer). The Enzyme mix is kept on ice during addition to the assay plates. 20 μl ‘Enzyme mix’ are added/well to start the reaction. The plate is then incubated at room temperature for 90 minutes. The reaction is terminated by the addition of 50 μl WGA-SPA bead (wheat germ agglutinin-coated Scintillation Proximity Assay beads) suspension per well. The assay plate is sealed using TopSeal-S (heat seal for polystyrene microplates, PerkinElmer LAS [Deutschland] GmbH, Rodgau, Germany) and incubated at room temperature for at least 60 minutes. The assay plate is then centrifuged at 1500 rpm for 2 minutes using the Jouan bench top centrifuge (Jouan Inc., Nantes, France). The assay plate is counted using a Packard TopCount, each well being counted for 20 seconds. The volume of enzyme is dependent on the enzymatic activity of the batch in use.In a more preferred assay, the kinase reaction is performed in a final volume of 10 μl per well of a low volume non-binding CORNING, 384 well black plate (Cat. No. #3676). The final concentrations of ATP and phosphatidyl inositol (PI) in the assay are 1 μM and 10 μg/mL, respectively. The reaction is started by the addition of ATP.The components of the assay are added per well as follows:50 nl test compounds in 90% DMSO per well, in columns 1-20, 8 concentrations (⅓ and 1/3.33 serial dilution step) in single. Low control: 50 nl of 90% DMSO in half the wells of columns 23-24 (0.45% in final). High control: 50 nl of reference compound (e.g. compound of Example 7 in WO 2006/122806) in the other half of columns 23-24 (2.5 μM in final). Standard: 50 nl of reference compound as just mentioned diluted as the test compounds in columns 21-22. 20 mL buffer are prepared per assay 200 μl of 1M TRIS HCl pH7.5 (10 mM in final) 60 μl of 1M MgCl2 (3 mM in final) 500 μl of 2M NaCl (50 mM in final) 100 μl of 10% CHAPS (0.05% in final) 200 μl of 100 mM DTT (1 mM in final) 18.94 mL of nanopure water 10 mL PI are prepared per assay 200 μl of 1 mg/mL 1-alpha-Phosphatidylinositol (Liver Bovine, Avanti Polar Lipids Cat. No. 840042C MW=909.12) prepared in 3% OctylGlucoside (10 μg/mL in final) 9.8 mL of buffer 10 mL ATP are prepared per assay.
[2] = molecular target: T1, Phosphatidylinositol 4,5-bisphosphate 3-kinase catalytic subunit delta isoform (Homo sapiens, UniProt O00329); assay: as §1
T1 sequence (O00329 whole entry): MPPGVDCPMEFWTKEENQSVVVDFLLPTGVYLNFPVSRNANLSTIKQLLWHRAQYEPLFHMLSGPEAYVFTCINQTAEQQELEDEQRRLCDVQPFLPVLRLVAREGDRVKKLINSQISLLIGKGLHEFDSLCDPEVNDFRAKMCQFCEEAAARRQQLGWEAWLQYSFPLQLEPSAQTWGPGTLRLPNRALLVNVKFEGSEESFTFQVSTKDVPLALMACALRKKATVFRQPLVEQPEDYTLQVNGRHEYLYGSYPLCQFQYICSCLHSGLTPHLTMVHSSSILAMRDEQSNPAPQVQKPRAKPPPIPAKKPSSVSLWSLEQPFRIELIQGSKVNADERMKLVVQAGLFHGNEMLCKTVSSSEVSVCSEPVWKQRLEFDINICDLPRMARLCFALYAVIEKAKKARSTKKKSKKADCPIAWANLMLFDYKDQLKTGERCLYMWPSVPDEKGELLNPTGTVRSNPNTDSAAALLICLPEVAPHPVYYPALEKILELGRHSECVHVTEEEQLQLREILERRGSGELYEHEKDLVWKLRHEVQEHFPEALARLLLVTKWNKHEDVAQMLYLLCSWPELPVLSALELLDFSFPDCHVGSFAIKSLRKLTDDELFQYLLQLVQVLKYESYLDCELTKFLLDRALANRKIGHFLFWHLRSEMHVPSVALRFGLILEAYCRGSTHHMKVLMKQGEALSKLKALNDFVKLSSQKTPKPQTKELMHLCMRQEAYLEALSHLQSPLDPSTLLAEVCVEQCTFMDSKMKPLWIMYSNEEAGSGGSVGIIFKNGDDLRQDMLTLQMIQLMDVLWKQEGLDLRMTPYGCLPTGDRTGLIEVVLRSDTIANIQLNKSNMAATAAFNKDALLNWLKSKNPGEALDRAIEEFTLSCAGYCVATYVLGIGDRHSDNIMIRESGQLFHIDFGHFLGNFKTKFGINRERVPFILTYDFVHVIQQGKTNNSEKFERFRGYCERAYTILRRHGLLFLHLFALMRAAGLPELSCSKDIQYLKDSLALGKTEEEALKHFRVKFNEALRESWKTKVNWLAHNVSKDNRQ

Chain of Phosphatidylinositol 4,5-bisphosphate 3-kinase catalytic subunit alpha isoform (P42336 whole entry, canonical isoform): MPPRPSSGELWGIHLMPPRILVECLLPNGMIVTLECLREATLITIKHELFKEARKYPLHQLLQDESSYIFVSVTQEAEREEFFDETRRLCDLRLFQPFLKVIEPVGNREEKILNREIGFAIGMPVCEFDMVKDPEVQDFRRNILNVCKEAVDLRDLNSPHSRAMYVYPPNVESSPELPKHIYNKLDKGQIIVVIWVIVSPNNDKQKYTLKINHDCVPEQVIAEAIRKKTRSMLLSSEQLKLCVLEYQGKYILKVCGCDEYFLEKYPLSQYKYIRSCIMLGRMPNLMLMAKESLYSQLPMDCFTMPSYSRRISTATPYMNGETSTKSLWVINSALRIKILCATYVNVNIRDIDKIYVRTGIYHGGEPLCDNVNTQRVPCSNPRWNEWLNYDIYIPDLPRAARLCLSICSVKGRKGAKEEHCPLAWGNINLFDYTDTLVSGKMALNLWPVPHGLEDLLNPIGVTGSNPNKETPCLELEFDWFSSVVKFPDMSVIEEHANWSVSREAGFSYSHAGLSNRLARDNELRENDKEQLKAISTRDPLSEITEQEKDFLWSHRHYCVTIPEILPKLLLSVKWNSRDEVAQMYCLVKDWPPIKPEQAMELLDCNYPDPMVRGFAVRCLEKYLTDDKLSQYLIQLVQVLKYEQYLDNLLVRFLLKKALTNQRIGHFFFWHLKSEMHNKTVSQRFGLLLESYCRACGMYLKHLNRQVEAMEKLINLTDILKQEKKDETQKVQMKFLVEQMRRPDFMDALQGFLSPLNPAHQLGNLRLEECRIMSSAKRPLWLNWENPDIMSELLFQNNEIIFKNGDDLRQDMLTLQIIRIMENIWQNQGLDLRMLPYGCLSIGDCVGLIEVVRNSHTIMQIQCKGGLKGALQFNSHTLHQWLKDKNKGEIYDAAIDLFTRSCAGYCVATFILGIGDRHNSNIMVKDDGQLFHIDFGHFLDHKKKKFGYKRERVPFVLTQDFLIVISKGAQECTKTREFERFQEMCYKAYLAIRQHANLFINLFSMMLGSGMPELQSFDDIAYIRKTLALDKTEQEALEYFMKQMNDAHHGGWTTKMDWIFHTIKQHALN

| Structure (SMILES) | IC50 [1] | IC50 [2] |
| --- | --- | --- |
| COc1cc(N2CCOc3ccc(O[C@H]4CCN(C(=O)C5CCCO5)C4)cc32)cnc1OC (single isomer, unassigned) | 703 nM and 521 nM | 5 nM and 7 nM |
| COc1cc(N2CCOc3ccc(O[C@H]4CCN(C(=O)c5cn(C)cn5)C4)cc32)cnc1Cl | 496 nM | 41 nM |
| COc1ncc(N2CCOc3ccc(O[C@H]4CCN(C(=O)C(C)C)C4)cc32)cc1C#N | 463 nM | 11 nM |
| COc1cc(N2CCOc3ccc(O[C@H]4CCN(C(=O)C5CCC(F)(F)CC5)C4)cc32)cnc1S(C)(=O)=O | 870 nM | 35 nM |
| COc1ncc(N2CCOc3ccc(O[C@H]4CCN(C(=O)c5cn(C)cn5)C4)cc32)cc1F | 209 nM | 10.2 nM |
| O=C(C1CCOCC1)N1CC[C@H](Oc2ccc3c(c2)N(c2cncc(C(F)(F)F)c2)CCO3)C1 | 377 nM | 9 nM |
| Cc1cc(N2CCOc3ccc(O[C@H]4CCN(C(=O)c5ccc(=O)[nH]c5)C4)cc32)cnc1Cl | 795 nM | 35 nM |
| CC(C)S(=O)(=O)c1cncc(N2CCOc3ccc(O[C@H]4CCN(C(=O)C5CCOCC5)C4)cc32)c1 | 2240 nM | 110 nM |
| Cc1cc(N2CCOc3cnc(O[C@H]4CCN(C(=O)C5CCS(=O)(=O)CC5)C4)cc32)cnc1OC(F)F | 870 nM | 10 nM |
| Cc1ccc(N2CCOc3ccc(O[C@H]4CCN(C(=O)C5CCOCC5)C4)cc32)cn1 | 4660 nM | 37 nM |
| O=C(C1CCOCC1)N1CC[C@H](Oc2ccc3c(c2)N(c2cncc(S(=O)(=O)N4CCOCC4)c2)CCO3)C1 | 313 nM | 3 nM |
| Cc1cc(N2CCOc3ccc(O[C@H]4CCN(C(=O)c5cn(C)cn5)C4)cc32)cnc1Cl | 193 nM | 32 nM |
